Experimental data published in ChEMBL document CHEMBL1148145, “2,3,4-Trimethyl-5,7-dihydroxy-2,3-dihydrobenzofuran, a novel antioxidant, from Penicillium citrinum F5” (J Nat Prod, 2002).

Test system: Radical scavenging activity
Experiment: Antioxidant activity assessed as DPPH radical scavenging activity after 30 mins by spectrophotometry
Format: functional

Row | IC50 | SMILES
1 | 8.92 µM | O=C1O[C@H]([C@@H](O)CO)C(O)=C1O [ASCORBIC ACID]
2 | 10.4 µM | Cc1c(O)cc(O)c2c1[C@@H](C)[C@H](C)O2
3 | 4.26 µM | O=C(O)c1cc(O)ccc1O [GENTISIC ACID]
4 | 36.1 µM | CC(C)(Sc1cc(C(C)(C)C)c(O)c(C(C)(C)C)c1)Sc1cc(C(C)(C)C)c(O)c(C(C)(C)C)c1 [PROBUCOL]
5 | 8.77 µM | Cc1c(C)c2c(c(C)c1O)CCC(C)(C(=O)O)O2 (stereo not given) [TROLOX]
